Experimental data reported in PubChem BioAssay (NCI).
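Values below derive from 48-hour exposures of cells grown in 96-well plates, with endpoints linearly interpolated between the two concentrations bracketing the appropriate inhibition level. At the TGI there is no net growth.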

Key:
Test in all cases: DTP human tumour cell line panel, 48 h
[1] = test system: CAKI-1 renal
[2] = test system: UO-31 renal
[3] = test system: HL-60(TB) leukemia
[4] = test system: U251 CNS
[5] = test system: ACHN renal
[6] = test system: DU-145 prostate
[7] = test system: HT29 colon
[8] = test system: NCI-H23 lung
[9] = test system: 786-0 renal
[10] = test system: A498 renal
[11] = test system: PC-3 prostate
[12] = test system: MDA-MB-435
[13] = test system: EKVX NSCLC
[14] = test system: RPMI-8226 leukemia
[15] = test system: KM12 colon
[16] = test system: HOP-62 NSCLC
[17] = test system: SF-295 CNS
[18] = test system: HCC-2998 colon
[19] = test system: SR leukemia
[20] = test system: SF-539 CNS

| Structure (SMILES) | TGI [1] [µM] | TGI [2] [µM] | TGI [3] [µM] | TGI [4] [µM] | TGI [5] [µM] | TGI [6] [µM] | TGI [7] [µM] | TGI [8] [µM] | TGI [9] [µM] | TGI [10] [µM] | TGI [11] [µM] | TGI [12] [µM] | TGI [13] [µM] | TGI [14] [µM] | TGI [15] [µM] | TGI [16] [µM] | TGI [17] [µM] | TGI [18] [µM] | TGI [19] [µM] | TGI [20] [µM] |
| --- | --- | --- | --- | --- | --- | --- | --- | --- | --- | --- | --- | --- | --- | --- | --- | --- | --- | --- | --- | --- |
| C/C(Cl)=N/OC(=O)Nc1ccc(S(N)(=O)=O)c(C)c1 | 3.23 | 28.1 | 3.05 | 33.7 | 5.37 | 30.5 | > 77.7 | 39.3 | 4.29 | 41.3 | 32.3 | 29.6 | 13 | 6.49 | 41.2 | 34.9 | 45.3 | 32.7 | – | – |
| NC(=S)N1N=C2c3ccccc3CC[C@@H]2[C@@H]1c1ccccc1 | 42.2 | > 94.6 | 10.5 | 21.6 | > 88.9 | – | 15.6 | 19 | 50.5 | > 83.8 | – | – | > 81.8 | 32.9 | 31 | > 59.1 | > 42.2 | > 55.7 | 12.6 | 22.3 |
| O=C(O)CCC(=O)Nc1ccc2ccccc2c1 | > 100 | > 100 | > 100 | > 100 | > 100 | > 100 | > 100 | > 100 | > 100 | > 100 | > 100 | > 100 | > 100 | > 100 | > 100 | > 100 | > 100 | > 100 | – | – |
| O=C(O)C1CCCN(CCc2c[nH]c3ccccc23)C1 (stereo not given) | > 100 | – | > 100 | > 100 | > 100 | > 100 | > 100 | > 100 | > 100 | > 100 | > 100 | > 100 | > 100 | > 100 | > 100 | > 100 | > 100 | > 100 | – | > 100 |
| CCOC(=O)N(NC(=O)NC(C)C)c1ccccc1 | > 100 | > 100 | > 100 | > 100 | > 100 | – | > 100 | > 100 | > 100 | > 100 | > 100 | – | > 100 | – | > 100 | > 100 | > 100 | > 100 | > 100 | > 100 |
| CC(=O)Oc1cc(Cl)c(C)c2c1[C@H]1CC[C@]3(C)[C@@H](OC(C)=O)CC[C@H]3[C@@H]1CC2 | – | > 100 | > 100 | > 100 | > 100 | > 100 | > 100 | > 100 | > 100 | > 100 | – | > 100 | > 100 | > 100 | > 100 | > 100 | > 100 | > 100 | – | > 100 |
| O=C(O)c1ccccc1/C=N/NC1=NCCN1 | – | > 100 | > 100 | > 100 | > 100 | – | > 100 | > 100 | > 100 | > 100 | > 100 | > 100 | > 100 | > 100 | > 100 | > 100 | > 100 | > 100 | > 100 | > 100 |
| COC(=O)c1cc(C)ccc1C1CN=NC12Cc1ccc(C)cc1C2=O (stereo not given) | > 100 | > 100 | 37.5 | > 100 | > 100 | > 100 | > 100 | > 100 | > 100 | 91.3 | > 100 | > 100 | > 100 | – | > 100 | > 100 | > 100 | > 100 | – | > 100 |
| C[N+](C)(C)CCCSc1nc2ccccc2[nH]1 | > 100 | > 100 | > 100 | > 100 | > 100 | > 100 | > 100 | > 100 | > 100 | > 100 | > 100 | > 100 | > 100 | > 100 | > 100 | > 100 | > 100 | > 100 | – | – |
| Cc1cccc(C(C)C)c1NC(=O)/C(Cc1c([N+](=O)[O-])cccc1[N+](=O)[O-])=N/NC(=O)CC#N | > 100 | > 100 | > 100 | – | > 100 | – | > 100 | – | > 100 | > 100 | – | – | > 100 | – | > 100 | – | > 100 | > 100 | – | > 100 |
| Cc1ccc(S(=O)(=O)c2ccsc2NC(=O)C(F)(F)F)cc1 | 82.6 | 96.1 | – | > 100 | > 100 | > 100 | > 100 | > 100 | > 100 | > 100 | > 100 | > 100 | > 100 | 31 | > 100 | > 100 | > 100 | > 100 | – | > 100 |
| [Cl-].[Rh+3].c1cnc2c(c1)ccc1cccnc12.c1cnc2c(c1)ccc1cccnc12.c1cnc2c(c1)ccc1cccnc12 | – | > 100 | > 100 | > 100 | > 100 | – | > 100 | > 100 | > 100 | – | – | – | > 100 | – | > 100 | > 100 | > 100 | > 100 | > 100 | > 100 |
| CC1OC(OC2C(OC(=O)[C@]34CCC(C)(C)CC3C3=CCC5[C@@]6(C)C[C@H](O)[C@H](OC7OC(CO)C(O)C(O)C7N)[C@@](C)(C(=O)O)C6CC[C@@]5(C)C3(C)CC4)OCC(O)C2O)C(O)C(O)C1OC1OCC(O)C(O)C1O (stereo not given in full) | > 100 | > 100 | > 100 | > 100 | > 100 | – | > 100 | > 100 | > 100 | > 100 | – | – | > 100 | > 100 | > 100 | > 100 | > 100 | > 100 | – | > 100 |
| O=C1c2ccccc2C(=O)c2c1cc(S(=O)(=O)O)c(O)c2O | > 100 | > 100 | – | > 100 | > 100 | – | > 100 | > 100 | > 100 | > 100 | – | – | > 100 | > 100 | > 100 | > 100 | > 100 | > 100 | > 100 | > 100 |
